Patent US8158640B2, “Tetrahydroquinoline derivatives and a process for preparing the same” (Mitsubishi Tanabe Pharma Corporation, priority 2005, dated 2012)

Biological target: T1, CETP (Homo sapiens, UniProt P11597)
T1 construct: from tissue; host or cells: plasma from a healthy volunteer
T1 sequence (P11597 18-493): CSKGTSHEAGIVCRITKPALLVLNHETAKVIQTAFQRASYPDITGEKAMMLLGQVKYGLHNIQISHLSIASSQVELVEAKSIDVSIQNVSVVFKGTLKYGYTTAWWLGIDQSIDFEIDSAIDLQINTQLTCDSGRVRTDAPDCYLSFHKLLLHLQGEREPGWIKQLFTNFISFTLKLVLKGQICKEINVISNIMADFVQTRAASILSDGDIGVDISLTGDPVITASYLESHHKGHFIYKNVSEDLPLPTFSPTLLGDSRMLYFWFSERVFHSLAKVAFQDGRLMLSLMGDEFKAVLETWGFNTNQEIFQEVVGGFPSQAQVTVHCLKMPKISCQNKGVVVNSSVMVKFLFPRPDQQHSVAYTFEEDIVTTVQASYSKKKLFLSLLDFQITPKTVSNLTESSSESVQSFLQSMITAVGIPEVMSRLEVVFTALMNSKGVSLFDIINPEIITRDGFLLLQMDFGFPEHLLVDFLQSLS
Test: Inhibitory activity against CETP in vitro (fluorescent BODIPY-CE transfer, donor/acceptor microemulsion, human plasma)
Format: biochemical
Conditions: plasma from a healthy volunteer diluted to 0.64%; preincubation with test solution 37° C. 24 hours, then 3 hours with donor/acceptor microemulsion; fluorescence Ex.550 nm/Em.600 nm; read-out: IC50 (inhibition of CETP activity)
Protocol: The inhibitory activity of the compounds of the present invention against CETP was tested in this experiment.
A solution of 1-Palmitoyl-2-oleoyl-sn-glycero-3-phosphocholine (3.5 mg), cholesteryl oleate (3 mg) and triolein (0.7 mg) in chloroform was mixed and lipid was air-dried under nitrogen gas to remove solvent. 1,4-Dioxane (0.25 ml) was then added and the mixture was stirred for dissolution. The resultant lipid solution (0.2 ml) was slowly injected under the surface of Tris-saline-EDTA(TSE) buffer solution [10 mM Tris/HCl (pH 7.4), 0.15M NaCl, 2 mM EDTA] (10 ml) with Hamilton syringe, while sonicating in ice-bath. After 1-hour-sonication in ice-bath, the solution was stored at 4° C.
A solution of egg PC (phosphatidylcholine) (0.33 mg) and BODIPY-CE (0.62 mg) in chloroform was mixed. After removing solvent by air-drying lipid under nitrogen gas, TSE buffer solution (3 ml) was added and the solution was sonicated in ice-bath. This solution was filtered to sterilize through 0.22 μm filter and stored at 4° C.
A test solution was prepared using dimethyl sulfoxide as a solvent. Plasma from a healthy volunteer was diluted to 0.64% with TSE buffer, and to the resultant plasma solution (187 μl) was added a test solution (3 μl) or the solvent alone followed by incubation at 37° C. for 24 hours. After addition of TSE buffer solution (10 μl) containing 5% donor micro-emulsion and 5% acceptor microemulsion, the mixture was incubated at 37° C. for 3 hours. […] CETP activity was defined as the difference between the measurements obtained before incubation and after incubation. The decreasing rate of the difference in the sample was defined as the inhibition rate of CETP activity. IC50 for each sample was calculated from the inhibition rate of CETP activity.

Row | IC50 | Compound
1 | 0.53 nM | CCOC(=O)N1c2ccc(C(F)(F)F)cc2[C@@H](N(Cc2cc(C(F)(F)F)cc(C(F)(F)F)c2)c2ccc(OCCCC(=O)O)cn2)C[C@H]1CC [Example 231, (2R,4S)-4-{[3,5-bis(trifluoromethyl)benzyl]-[5-(3-carboxypropoxy)pyridin-2-yl]}amino-2-ethyl-6-trifluoromethyl-3,4-dihydro-2H-quinoline-1-carboxylic acid ethyl ester]
2 | 4.2 nM | (2R,4S)-4-{[3,5-bis(trifluoromethyl)-benzyl]-(5-carboxypyrimidin-2-yl)}amino-2-ethyl-6-trifluoromethyl-3,4-dihydro-2H-quinoline-1-carboxylic acid ethyl ester [Example 16]
3 | 0.18 nM | (2R,4S)-4-{[3,5-bis(trifluoromethyl)benzyl]-[5-(morpholin-4-yl)pyrimidin-2-yl]}amino-2-ethyl-6-trifluoromethyl-3,4-dihydro-2H-quinoline-1-carboxylic acid 5-carboxypentyl ester [Example 275]
4 | 0.66 nM | CCOC(=O)N1c2ccc(C(F)(F)F)cc2C(N(Cc2cc(C(F)(F)F)cc(C(F)(F)F)c2)c2ncc(OCCCCC(=O)O)cn2)CC1CC (stereo not drawn) [Example 198]
5 | 0.23 nM | (2R*,4S*)-4-{[3,5-bis(trifluoromethyl)benzyl]-[(5-morpholin-4-yl)pyrimidin-2-yl]}amino-2-ethyl-6-trifluoromethyl-3,4-dihydro-2H-quinoline-1-carboxylic acid 2-hydroxyethyl ester [Example 174]
6 | 0.32 nM | (2R,4S)-4-{[3,5-bis(trifluoromethyl)benzyl]-[5-(2-methoxyethoxy)pyrimidin-2-yl]}amino-2-ethyl-6-trifluoromethyl-3,4-dihydro-2H-quinoline-1-carboxylic acid 2-carboxyethyl ester [Example 291]
7 | 2.7 nM | CCOC(=O)N1c2ccc(C(F)(F)F)cc2[C@@H](N(Cc2cc(C#N)cc(C(F)(F)F)c2)c2ncc(N3CCC(C(=O)O)CC3)cn2)C[C@H]1CC [Example 235, (2R,4S)-4-{[5-(4-carboxypiperidin-1-yl)pyrimidin-2-yl]-(3-cyano-5-trifluoromethylbenzyl)}amino-2-ethyl-6-trifluoromethyl-3,4-dihydro-2H-quinoline-1-carboxylic acid ethyl ester]
8 | 0.89 nM | CCOC(=O)N1c2ccc(C(F)(F)F)cc2[C@@H](N(Cc2cc(C(F)(F)F)cc(C(F)(F)F)c2)c2ncc(N(C)CCC(=O)O)cn2)C[C@H]1CC [Example 127]

Row | Compound | IC50
9 | (2R,4S)-4-{[3,5-bis(trifluoromethyl)benzyl]-[5-(morpholin-4-yl)-pyrimidin-2-yl]}amino-2-ethyl-6-trifluoromethyl-3,4-dihydro-2H-quinoline-1-carboxylic acid ethyl ester [Example 1] | 0.17 nM
